Measurements reported in paper PMC9458059, “Design, Synthesis and Biological Evaluation of New Carbohydrate-Based Coumarin Derivatives as Selective Carbonic Anhydrase IX Inhibitors via “Click” Reaction” (Molecules, 2022).
Read-outs that look alike come from different tables or passages of the source.

Columns and labels:
[1] = tested on: HT-29 cells; assay: Cell viability MTT assay, HT-29; assay type: cell-based; settings: Homo sapiens
Description: (§1) In the present study, the potential cytotoxicity of compounds 10a–10p was evaluated in vitro by MTT assay. […] So, half of each cell line were subjected to hypoxic conditions (0.5% O2, 5% CO2 and 94.5% N2) for inducing the expression of CA IX and the other half were incubated under normal conditions (normoxia). Subsequently, all synthesized derivatives were screened at a concentration of 100 μM to test their cytotoxicity in mentioned above cells.
(§2) The two human cancer cell lines were cultivated for 24 h at 37 °C in a 96-well plate. Subsequently, different concentrations of inhibitors were added to 96-well plate and then was incubated for 96 hours. After the MTT solution was added to per well, cancer cells were further incubated for 4 h at 37 °C. Finally, formazan crystals were dissolved by using DMSO. The cancer cells were from American Type Culture Collection.

[2] = tested on: MDA-MB-231 cells; assay: Cell viability MTT assay, MDA-MB-231; assay type: cell-based; settings: Homo sapiens
Description: as §1, §2

[3] = biological target: CAIX; settings: reported coumarins, Figure 1; cited from earlier work
[4] = biological target: hCA II (Homo sapiens, UniProt P00918); assay: CA inhibition by the esterase assay, hCA II; assay type: biochemical; settings: human recombinant enzyme, 4-nitrophenylacetate as substrate
Description: (§3) The esterase assay was used for testing the inhibitory activities of target compounds against carbonic anhydrases. […] Next, the stock solution of inhibitor was diluted to the specified concentration by using analysis buffer. […] In addition, the purchased CA was diluted with analysis buffer and added to 96-well plates. Next, different concentrations of inhibitors were also added to 96-well plates. To form the inhibitors and enzymes complex, E-I solutions were preincubated together for 4 h before the test at room temperature. Meanwhile, the nonenzymatic hydrolysis rates were tested by the blank control experiments. The absorbances were determined by using multifunctional enzyme marking instrument.

[5] = biological target: T1, hCA I (Homo sapiens, UniProt P00915); assay: CA inhibition by the esterase assay, hCA I; assay type: biochemical; settings: human recombinant enzyme, 4-nitrophenylacetate as substrate
T1 construct: purchased
Description: as §3

[6] = biological target: T2, hCA IX (Homo sapiens, UniProt Q16790); assay: CA inhibition by the esterase assay, hCA IX; assay type: biochemical; settings: for IC50: human recombinant enzyme, esterase assay, 4-nitrophenylacetate as substrate; for Selectivity Ratio hCA I/hCA IX / Selectivity Ratio hCA II/hCA IX: ratio of IC50 values
T2 construct: purchased
Description: as §3

[7] = Metabolic stability in mouse liver microsomes; settings: mouse, liver microsomes
[8] = biological target: CAI; settings: reported coumarins, Figure 1; cited from earlier work
[9] = hypoxia (0.5% O2, 5% CO2 and 94.5% N2), read-out: Cell Viability (%) HT-29 Hypoxia
[10] = normoxia, read-out: Cell Viability (%) HT-29 Normoxia
[11] = hypoxia (0.5% O2, 5% CO2 and 94.5% N2), read-out: Cell Viability (%) MDA-MB-231 Hypoxia
[12] = normoxia, read-out: Cell Viability (%) MDA-MB-231 Normoxia

T1 sequence (P00915 whole entry): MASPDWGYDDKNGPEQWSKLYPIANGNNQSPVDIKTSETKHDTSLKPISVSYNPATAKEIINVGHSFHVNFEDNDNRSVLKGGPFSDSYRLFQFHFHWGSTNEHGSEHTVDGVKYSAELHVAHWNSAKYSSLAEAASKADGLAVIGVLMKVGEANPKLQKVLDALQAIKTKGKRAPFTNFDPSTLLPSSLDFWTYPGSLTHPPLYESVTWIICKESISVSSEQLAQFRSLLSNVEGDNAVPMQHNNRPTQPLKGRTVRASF

Compound	viability at 100 µM [1, 9] [%]	viability at 100 µM [1, 10] [%]	viability at 100 µM [2, 11] [%]	viability at 100 µM [2, 12] [%]	Ki [3] [µM]	IC50 [4] [µM]	IC50 [5] [µM]	IC50 [6] [µM]	Selectivity Ratio hCA I/hCA IX [6]	Selectivity Ratio hCA II/hCA IX [6]	CLint scaled at 1 μM [7] [mL/min/kg]	half-life at 1 μM [7] [h]	melting point [°C]	Ki [8] [µM]
CC(=O)Nc1nnc(S(N)(=O)=O)s1 [AAZ, acetazolamide, reference compound]	80.1	85.2	80.3	84.7										
O=c1ccc2ccccc2o1 [Compound 2]					> 50									
O=c1ccc2ccc(OCc3cn([C@@H]4O[C@H](CO)[C@H](O)[C@H](O)[C@H]4O)nn3)cc2o1 [Compound 10b, 7-[(1-β-. D-galactopyranosyl-1H-1,2,3-triazol-4-yl)methoxy]-2H-chromen-2-one]	48.7	50.5	33.7	61.4		31.3	24.3	0.074	328	423	4.33	21.1		
N[C@@H]1[C@@H](O)[C@H](O)[C@@H](CO)O[C@H]1n1cc(COc2ccc3ccc(=O)oc3c2)nn1 [Compound 10d, 7-[(1-β-. D-glucosaminogly-1H-1,2,3-triazol-4-yl)methoxy]-2H-chromen-2-one]	45.6	57	38.9	60.2		32.8	51.5	0.057	904	575	4.26	21.5	131.3 to 134.2	
O=c1ccc2ccc(OCc3cn([C@@H]4OC[C@@H](O)[C@H](O)[C@H]4O)nn3)cc2o1 [Compound 10e, 7-[(1-β-. D-xylopyranosyl-1H-1,2,3-triazol-4-yl)methoxy]-2H-chromen-2-one]	39.5	49.3	42.9	58.2		21	42.3	0.061	693	344	4.04	22.6	128.4 to 130.6	
O=c1ccc2ccc(OCc3cn([C@@H]4OC[C@H](O)[C@H](O)[C@H]4O)nn3)cc2o1 [Compound 10f, 7-[(1-β-. L-arabinopyranosyl-1H-1,2,3-triazol-4-yl)methoxy]-2H-chromen-2-one]	38.1	48.7	33.8	65.6		31.7	65.6	0.042	1562	755	3.75	24.4	133.1 to 135.1	
C[C@@H]1O[C@H](n2cc(COc3ccc4ccc(=O)oc4c3)nn2)[C@H](O)[C@H](O)[C@H]1O [Compound 10g, 7-[(1-β-. L-rhamnosyl-1H-1,2,3-triazol-4-yl)methoxy]-2H-chromen-2-one]	38.7	42.4	36.1	53.2		31.6	36.5	0.124	294	255	3.65	25	126.1 to 129.6	
Cc1cc(=O)oc2cc(OCc3cn([C@@H]4O[C@H](CO)[C@@H](O)[C@H](O)[C@H]4O)nn3)ccc12 [Compound 10i, 7-[(1-β-. D-glucopyranosyl-1H-1,2,3-triazol-4-yl)methoxy]-4-methyl-2H-chromen-2-one]	42.6	48.5	33.2	65.2		14	32.1	0.084	382	167	3.83	23.9	127.9 to 130.2	
Cc1cc(=O)oc2cc(OCc3cn([C@@H]4O[C@H](CO)[C@H](O)[C@H](O)[C@H]4O)nn3)ccc12 [Compound 10j, 7-[(1-β-. D-galactopyranosyl-1H-1,2,3-triazol-4-yl)methoxy]-4-methyl-2H-chromen-2-one]	46.4	60.2	40.9	64.7		16.1	44.1	0.098	450	164	3.5	26.1	124.2 to 126.6	
Cc1cc(=O)oc2cc(OCc3cn([C@@H]4O[C@H](CO)[C@@H](O)[C@H](O)[C@@H]4O)nn3)ccc12 [Compound 10k, 7-[(1-β-. D-mannopyranosyl-1H-1,2,3-triazol-4-yl)methoxy]-4-methyl-2H-chromen-2-one]	40.3	52.3	33.7	61.3		23	49	0.042	1167	548	3.25	28.1	121.5 to 122.6	
Cc1cc(=O)oc2cc(OCc3cn([C@@H]4O[C@H](CO)[C@@H](O)[C@H](O)[C@H]4N)nn3)ccc12 [Compound 10l, 7-[(1-β-. D-glucosaminogly-1H-1,2,3-triazol-4-yl)methoxy]-4-methyl-2H-chromen-2-one]	44.8	51.2	38.5	65.1		31.4	56.9	0.032	1778	981	3.07	29.8	126.2 to 128.4	
Cc1cc(=O)oc2cc(OCc3cn([C@@H]4OC[C@@H](O)[C@H](O)[C@H]4O)nn3)ccc12 [Compound 10m, 7-[(1-β-. D-xylopyranosyl-1H-1,2,3-triazol-4-yl)methoxy]-4-methyl-2H-chromen-2-one]	35.5	40.5	39.8	53.2		22.6	43.9	0.067	655	337	3.38	27.1	122.4 to 123.9	
Cc1cc(=O)oc2cc(OCc3cn([C@@H]4OC[C@H](O)[C@H](O)[C@H]4O)nn3)ccc12 [Compound 10n, 7-[(1-β-. L-arabinopyranosyl-1H-1,2,3-triazol-4-yl)methoxy]-4-methyl-2H-chromen-2-one]	38.2	41.5	38.5	65.7		12.2	35.7	0.045	793	271	3.56	25.7	129.3 to 132.5	
Cc1cc(=O)oc2cc(OCc3cn([C@H]4O[C@@H](C)[C@H](O)[C@@H](O)[C@H]4O)nn3)ccc12 [Compound 10o, 7-[(1-β-. L-rhamnosyl-1H-1,2,3-triazol-4-yl)methoxy]-4-methyl-2H-chromen-2-one]	33.3	45.7	38.7	60.3		32.1	57.5	0.096	599	334	3.13	29.2	125.5 to 127.7	
Cc1cc(=O)oc2cc(OCc3cn([C@@H]4O[C@H](CO)[C@@H](O)[C@H]4O)nn3)ccc12 [Compound 10p, 7-[(1-β-. D-ribofuranosyl-1H-1,2,3-triazol-4-yl)methoxy]-4-methyl-2H-chromen-2-one]	36.7	63.1	35.2	73.1		22.4	63.4	0.098	647	229	2.98	30.7	123.2 to 125.6	
O=c1ccc2ccccc2s1 [Thiocoumarin 3, thiocoumarin]														> 100
